Laboratory results published in patent publication US20240277683A1, “COMPOUNDS” (CTXT PTY LTD, priority 2018, published 2024).
Like-named read-outs stand apart in the source and are kept apart here.

Legend:
HBO-KAT7 = HBO-KAT7 (Homo sapiens (Human), UniProt O95251); assay: Acetyltransferase biochemical assay (AlphaScreen), KAT7; conditions: 1 μM AcCoA, histone H3.1
TIP60-KAT5 = TIP60-KAT5 (Homo sapiens (Human), UniProt Q92993); assay: Acetyltransferase biochemical assay (AlphaScreen), KAT5; conditions: 1 μM AcCoA, histone H4
Sequence of TIP60-KAT5 (Q92993 other isoform, or with tags, fused parts or gaps): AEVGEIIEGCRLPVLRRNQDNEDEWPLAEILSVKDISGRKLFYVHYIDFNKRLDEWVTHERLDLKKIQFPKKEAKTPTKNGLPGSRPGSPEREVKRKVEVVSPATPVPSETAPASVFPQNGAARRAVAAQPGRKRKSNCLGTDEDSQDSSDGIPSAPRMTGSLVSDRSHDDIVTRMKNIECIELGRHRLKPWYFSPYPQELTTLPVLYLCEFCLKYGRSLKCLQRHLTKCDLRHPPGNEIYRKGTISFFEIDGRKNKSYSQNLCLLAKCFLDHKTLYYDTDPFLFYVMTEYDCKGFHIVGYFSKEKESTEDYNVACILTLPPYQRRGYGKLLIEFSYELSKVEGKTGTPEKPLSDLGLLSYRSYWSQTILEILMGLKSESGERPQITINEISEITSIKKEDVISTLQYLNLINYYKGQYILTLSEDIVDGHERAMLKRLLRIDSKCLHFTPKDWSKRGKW

MOF-KAT8 = MOF-KAT8 (Homo sapiens (Human), UniProt Q9H7Z6); assay type: biochemical; conditions: 1 μM AcCoA, histone H4
Sequence of MOF-KAT8 (Q9H7Z6 177-447): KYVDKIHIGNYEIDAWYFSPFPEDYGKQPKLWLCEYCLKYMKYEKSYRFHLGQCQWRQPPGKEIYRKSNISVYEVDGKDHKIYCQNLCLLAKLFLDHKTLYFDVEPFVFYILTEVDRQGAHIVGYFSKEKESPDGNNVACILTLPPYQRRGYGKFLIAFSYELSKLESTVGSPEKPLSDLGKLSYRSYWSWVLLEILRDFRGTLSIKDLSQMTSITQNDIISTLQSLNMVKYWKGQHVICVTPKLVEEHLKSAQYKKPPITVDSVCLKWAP

MOZ-KAT6A = MOZ-KAT6A (Homo sapiens (Human), UniProt Q92794); assay: Acetyltransferase biochemical assay (AlphaScreen), KAT6A; conditions: 1 μM AcCoA, histone H3.1
Sequence of MOZ-KAT6A (Q92794 other isoform, or with tags, fused parts or gaps): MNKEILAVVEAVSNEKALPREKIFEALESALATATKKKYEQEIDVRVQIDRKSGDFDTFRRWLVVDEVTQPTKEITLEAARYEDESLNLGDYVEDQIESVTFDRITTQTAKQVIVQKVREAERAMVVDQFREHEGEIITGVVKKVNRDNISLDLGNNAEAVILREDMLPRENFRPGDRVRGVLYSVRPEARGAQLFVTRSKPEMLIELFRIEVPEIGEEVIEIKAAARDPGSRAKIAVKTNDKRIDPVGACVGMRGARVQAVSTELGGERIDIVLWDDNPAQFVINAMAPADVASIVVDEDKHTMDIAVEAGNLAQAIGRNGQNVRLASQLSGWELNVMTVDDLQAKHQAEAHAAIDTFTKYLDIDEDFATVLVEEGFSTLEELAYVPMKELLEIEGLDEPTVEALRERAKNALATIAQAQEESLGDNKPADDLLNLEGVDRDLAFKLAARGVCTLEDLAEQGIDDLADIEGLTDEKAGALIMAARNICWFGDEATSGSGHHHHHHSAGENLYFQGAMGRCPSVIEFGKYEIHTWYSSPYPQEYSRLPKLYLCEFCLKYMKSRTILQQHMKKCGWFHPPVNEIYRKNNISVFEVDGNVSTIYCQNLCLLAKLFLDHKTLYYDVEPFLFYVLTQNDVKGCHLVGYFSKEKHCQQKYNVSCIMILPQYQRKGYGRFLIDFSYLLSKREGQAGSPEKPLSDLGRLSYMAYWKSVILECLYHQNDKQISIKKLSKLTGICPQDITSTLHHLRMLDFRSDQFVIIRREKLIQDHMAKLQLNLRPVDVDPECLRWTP

[1] = system: histone H2A.Z Lysine 7 acetylation marker in U2OS cells; assay: H2A.Z Lysine 7 Acetylation Biomarker Assay; assay type: cell-based; conditions: Homo sapiens
Method: Compounds may be tested for their ability to inhibit the histone H2A.Z Lysine 7 acetylation marker in the following assay:
(§1) The cell line U2OS was seeded at a density of 3,000 cells per well in 384-well optical quality tissue culture plates in RPMI medium supplemented with 10% foetal bovine serum and 10 mM Hepes. The cells were allowed to adhere for 24 hours under standard culture conditions (37 degree Celsius, 5% CO2). At the end of this period the cells were washed with serum free medium. […] Plates were washed and read on a PerkinElmer Opera HCS high content imaging platform.

[2] = system: acetylation of the histone H3 Lysine 14 marker in U2OS cells; assay: Histone H3 Lysine 14 Acetylation Biomarker Assay; assay type: cell-based; conditions: Homo sapiens
Method: Compounds may be tested for their ability to inhibit acetylation of the histone H3 Lysine 14 marker in the following assay:
as §1

[3] = system: acetylation of the histone H3K23 marker in U2OS cells; assay: Histone H3 Lysine 23 Acetylation Biomarker Assay; assay type: cell-based; conditions: Homo sapiens
Method: Compounds may be tested for their ability to inhibit acetylation of the histone H3K23 marker in the following assay:
The cell line U2OS was seeded at a density of 9,000 cells per well in 96 well optical quality tissue culture plates in RPMI medium and 10% foetal bovine serum, and allowed to adhere for 24 hours under standard culture conditions (37 degree Celsius, 5% CO2). At the end of this period the medium was aspirated. […] After incubation for 24 hours, the cells were fixed with 3.7% formaldehyde in PBS for 20 minutes at room temperature, washed (5×5 minutes) with phosphate buffer saline containing 0.1% Tween 20 and blocked with Odyssey blocking buffer (LI-COR, Lincoln, NE) containing 0.1% TritonX100. Anti-H3K23ac specific antibody (Abcam ab177275) in Odyssey blocking buffer containing 0.1% Tween 20 was added and incubated for 16 hours at 4 degree Celsius. […] Plates were washed as previously and read on a PerkinElmer Phenix high content imaging platform.

Sequence of HBO-KAT7 (O95251 other isoform, or with tags, fused parts or gaps): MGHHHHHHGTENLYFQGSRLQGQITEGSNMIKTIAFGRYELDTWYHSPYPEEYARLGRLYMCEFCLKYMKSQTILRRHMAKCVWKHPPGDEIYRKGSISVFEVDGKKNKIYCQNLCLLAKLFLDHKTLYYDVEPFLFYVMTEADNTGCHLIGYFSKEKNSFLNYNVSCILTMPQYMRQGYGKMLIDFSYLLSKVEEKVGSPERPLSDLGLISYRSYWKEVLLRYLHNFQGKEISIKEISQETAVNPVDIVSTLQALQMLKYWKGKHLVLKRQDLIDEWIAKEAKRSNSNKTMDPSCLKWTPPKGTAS

**Q.** How did the IC50 (HBO-KAT7) turn out when `O=S(=O)(Nc1cc(-c2ccccc2)on1)c1cccnc1` [Example 30, N-(5-phenylisoxazol-3-yl)pyridine-3-sulfonamide] was run?
**A.** > 125 µM

**Q.** And the IC50 (TIP60-KAT5)?
**A.** > 125 µM

**Q.** For `O=S(=O)(Nc1cc(-c2ccccc2)on1)c1cccc(Cl)c1` [Example 35, 3-chloro-N-(5-phenylisoxazol-3-yl)benzenesulfonamide], which IC50 (HBO-KAT7) is on record?
**A.** > 125 µM

**Q.** What about the IC50 (TIP60-KAT5) of the same compound?
**A.** > 125 µM

**Q.** Which IC50 (TIP60-KAT5) does the source give for `COc1cccc(S(=O)(=O)Nc2cc(-c3ccccc3)on2)c1` [Example 36, 3-methoxy-N-(5-phenylisoxazol-3-yl)benzenesulfonamide] here?
**A.** > 125 µM

**Q.** `N#Cc1ccc(S(=O)(=O)Nc2cc(-c3ccccc3)on2)cc1` [Example 45, 4-cyano-N-(5-phenylisoxazol-3-yl)benzenesulfonamide] was tested. Which IC50 (MOF-KAT8) did it give?
**A.** > 125 µM

**Q.** And the IC50 (TIP60-KAT5)?
**A.** > 125 µM

**Q.** How did the IC50 (TIP60-KAT5) turn out when `N#Cc1cccc(S(=O)(=O)Nc2cc(-c3ccccc3)on2)c1` [Example 46, 3-cyano-N-(5-phenylisoxazol-3-yl)benzenesulfonamide] was run?
**A.** > 125 µM

**Q.** `O=S(=O)(Nc1cc(-c2ccccc2)on1)c1ccc(C(F)(F)F)cc1` [Example 47, N-(5-phenylisoxazol-3-yl)-4-(trifluoromethyl)benzenesulfonamide] was tested. Which IC50 (TIP60-KAT5) did it give?
**A.** > 125 µM

**Q.** `COc1ccccc1-c1cc(N(C)S(=O)(=O)c2c(OC)cc(-c3ccccc3)cc2OC)no1` [Example 55, 2,6-Dimethoxy-N-[5-(2-methoxyphenyl)isoxazol-3-yl]-N-methyl-4-phenyl-benzenesulfonamide] was tested. Which IC50 (MOF-KAT8) did it give?
**A.** > 125 µM

**Q.** What about the IC50 (TIP60-KAT5) of the same compound?
**A.** > 125 µM

**Q.** Which IC50 (MOF-KAT8) does the source give for `O=S(=O)(Nc1cc(-c2ccccc2)on1)c1ccccc1` [Example 63, N-(5-phenylisoxazol-3-yl)benzenesulfonamide] here?
**A.** > 125 µM

**Q.** `O=S(=O)(Nc1noc(-c2ccccc2)n1)c1ccccc1F` [Example 68, 2-Fluoro-N-(5-phenyl-1,2,4-oxadiazol-3-yl)benzenesulfonamide] was tested. Which IC50 (HBO-KAT7) did it give?
**A.** > 125 µM

**Q.** What about the IC50 (TIP60-KAT5) of the same compound?
**A.** > 125 µM

**Q.** Which IC50 (HBO-KAT7) does the source give for `COC(=O)c1c(-c2ccc(OC)cc2)noc1NS(=O)(=O)c1ccc(C)c(C)c1` [Example 83, methyl 5-((3,4-dimethylphenyl)sulfonamido)-3-(4-methoxyphenyl)isoxazole-4-carboxylate] here?
**A.** > 125 µM

**Q.** `CCc1ccc(OC)c(S(=O)(=O)Nc2cc(-c3ccncc3)no2)c1` [Example 85, 5-Ethyl-2-methoxy-N-(3-(pyridin-4-yl)isoxazol-5-yl)benzenesulfonamide] was tested. Which IC50 (TIP60-KAT5) did it give?
**A.** > 125 µM

**Q.** `COc1cccc(OC)c1S(=O)(=O)Nc1nnc(-c2ccccc2Cn2cccn2)s1` [Example 101, N-(5-(2-((1H-Pyrazol-1-yl)methyl)phenyl)-1,3,4-thiadiazol-2-yl)-2,6-dimethoxybenzenesulfonamide] was tested. Which IC50 (MOZ-KAT6A) did it give?
**A.** > 125 µM

**Q.** And the IC50 (TIP60-KAT5)?
**A.** > 125 µM

**Q.** How did the IC50 ([1]; H2A.ZK7ac, U2OS cells, serum free medium, 24 hours, read-out: IC50) turn out when `COc1ccc(-n2cccn2)cc1-c1cc(NS(=O)(=O)c2c(OC)cccc2OC)no1` [Example 105, 2,6-Dimethoxy-N-(5-(2-methoxy-5-(1H-pyrazol-1-yl)phenyl)isoxazol-3-yl)benzenesulfonamide] was run?
**A.** 17.1 µM

**Q.** What about the IC50 ([2]; H3K14ac, U2OS cells, serum free medium, 24 hours, read-out: IC50) of the same compound?
**A.** 3 µM

**Q.** And the IC50 ([3]; H3K23ac, U2OS cells, 24 hours, read-out: IC50)?
**A.** 0.173 µM

**Q.** `COc1ccccc1-c1cc(NS(=O)(=O)Nc2ccccc2)no1` [Example 116, N-Phenyl((5-(2-methoxyphenyl)-1,2-oxazol-3-yl)amino)sulfonamide] was tested. Which IC50 ([1]; U2OS, 24 h) did it give?
**A.** > 40 µM

**Q.** What about the IC50 ([2]; U2OS, 24 h) of the same compound?
**A.** > 40 µM

**Q.** And the IC50 ([3]; U2OS, 24 h)?
**A.** > 20 µM

**Q.** `CCc1ccc(OC)c(S(=O)(=O)Nc2nnc(-c3ccc(OC)c(OC)c3)o2)c1` [Example 125, N-(5-(3,4-Dimethoxyphenyl)-1,3,4-oxadiazol-2-yl)-5-ethyl-2-methoxybenzenesulfonamide] was tested. Which IC50 (TIP60-KAT5) did it give?
**A.** > 125 µM

**Q.** With `COc1ccccc1-c1nnc(NS(=O)(=O)C2CCOCC2)s1` [Example 127, N-(5-(2-methoxyphenyl)-1,3,4-thiadiazol-2-yl)tetrahydro-2H-pyran-4-sulfonamide] as the compound, how does the IC50 (MOZ-KAT6A) read?
**A.** > 125 µM

**Q.** And the IC50 (TIP60-KAT5)?
**A.** > 125 µM
